# Measured values: patent US8163924B2, “Process for preparing a leukotriene antagonist and an intermediate thereof” (Moehs Ibérica, S.L., priority 2007, dated 2012)
# Structures can show the parent of a compound that is named as a salt.
# Assay: Solubility of dicyclohexylamine salts: amounts of solvents needed to dissolve each compound at reflux
# Assay type: physicochemical
# Details: amounts approximate, same quantity of each compound
# Text: In particular, the amounts of solvents needed to dissolve each compound at reflux are provided.
# The amounts of solvents needed to dissolve the salts are approximate.
Compound,amount of solvent needed to dissolve the compound at reflux (acetone) [volumes acetone],amount of solvent needed to dissolve the compound at reflux (isopropyl acetate) [volumes isopropyl acetate]
"CC(=O)c1ccccc1CC[C@@H](SCC1(CC(=O)O)CC1)c1cccc(/C=C/c2ccc3ccc(Cl)cc3n2)c1 [IIa, (R)-(E)-1-(((1-(3-(2-(7-chloro-2-quinolinyl)ethenyl)phenyl)-3-(2-acetylphenyl)propyl)thio)methyl)cyclopropane acetic acid dicyclohexylamine salt]",100,45
COC(=O)c1ccccc1CC[C@@H](SCC1(CC(=O)O)CC1)c1cccc(/C=C/c2ccc3ccc(Cl)cc3n2)c1 [R = —CO2CH3],50,20
